Source: patent US20240327339A1, “COMPOSITIONS AND METHODS FOR TREATING AND PREVENTING VIRAL INFECTIONS” (priority 2021, published 2024)
Values after ≈ are worked out from the molar mass of the structure shown. “Also recorded” adds a separate entry of the source. Where two headings read alike, the source gives them in different places.

What was measured:
A/WSN/33 (H1N1) [1] = experiment: A/WSN/33 (H1N1) IC50 (Perwitasari et al.); format: cell-based; conditions: Influenza A virus; converted from 0.5 nM
[2] = system: SLC22A8 (OAT3) transcripts; experiment: OAT3 expression in HEp-2 cells (qPCR); conditions: HEp-2 cells treated with IC90 of probenecid [7.2 uM] for 24 h
SARS-CoV-2 [3] = experiment: SARS-CoV-2 IC90 (Investigator Brochure); conditions: Severe acute respiratory syndrome coronavirus 2, read-out: IC90 level corrected for 95% protein binding
E. coli = experiment: Killing of free bacteria
RSV B1 = experiment: In vitro probenecid inhibition assay, RSV B1 (plaque assay); format: cell-based, respiratory syncytial virus (RSV); conditions: for IC50 / IC90: human respiratory syncytial virus; for IC90: up to 100 μM; for virus replication compared to control (DMSO only): Vero E6, HEp-2 and NHBE cells
SARS-CoV-2 [4] = conditions: ten non-hospitalized patients, mild to moderate infection; 28 day; cited from earlier work
Measles virus [5] = experiment: Measles virus syncytia immunostaining; format: cell-based
Description: (§1) Plate 4×10^4/well of Vero-E6 or Hep-2 cells to be 95-100% confluent the next day. The next day make fresh dilutions of Probenecid were made. From a stock concentration of 10 mM in 100% DMSO, dilutions were made with half DMSO and half DMEM with 4% BSA fraction. FBS inhibits some viruses. Media was decanted and dilutions of probenecid were added to cells. Controls: DMSO/Media mixture, Media with no Probenecid, Media with no virus. Probenecid dilutions were left on cells for 24 hrs. After 24 hrs, media was decanted and virus was added (MOI=0.01/well). Virus was diluted to MOI=0.01 per 100 uL with DMEM. Left virus inoculum on cells for 1 hr. After 1 hr, infection media was decanted and replaced with dilutions of Probenecid. For Immunostaining, plates were left for 24 hrs before fixing cells. For Plaque Assays, plates were left for 72 hrs before freezing at −80 C.
The immunostaining protocol generally included fixing cells with 4% formaldehyde in PBS (50 uL) for 15-20 min at room temp, rinsing cells 3× with PBS (100 uL), and optionally storing cells at 4° C. in PBS until ready to stain. Permeabilizing cells with 0.05% TritonX-100 in PBS (100 uL) for 10 min at room temp, rinsing cells 3× with PBS (100 uL), blocking with 3% BSA-PBS (100 uL) for 1 hr at 37° C. or overnight at 4° C. Blocking solution was removed and cells were incubated with primary antibody (mouse mAb uNP, Millipore MAB8906) at 1:10,000 dilution (100 uL) for 1 hour (antibody diluted in 3% BSA-PBS). Cells were washed 3× with KPL Buffer (100 uL), incubated for 45 min with secondary antibody (Goat uMouse conjugated with Alex flour 488) in the dark at 37° C. (antibody diluted in 3% BSA-PBS). Cells were washed 3× with KPL Buffer in the dark (100 uL), rapidly stained with DAPI (1 ug/mL) for 10 min in the dark, washed 3× with PBS in the dark and stored in 200 ul of PBS until visualization.
Experiments were designed to test the prophylactic effect of probenecid on measles virus infection. Cells were infected with measle virus with, or without, probenecid treatment and immunostained for syncytia. […]

RSV A2 [6] = experiment: In vitro probenecid inhibition assay, RSV A2 (plaque assay); format: cell-based, respiratory syncytial virus (RSV); conditions: for IC50 / IC90: human respiratory syncytial virus; for virus replication compared to control (DMSO only): Vero E6, HEp-2 and NHBE cells
A/WSN/33 (H1N1) [7] = conditions: Perwitasari et al. 2013; cited from earlier work
[8] = system: adenovirus serotype 5 (Ad5); experiment: Ad5 infection of A549 cells; format: cell-based; conditions: only limited conditions tested
Burkholderia = experiment: Bacterial replication in macrophage; conditions: macrophage-associated bacteria
RSV A2 [9] = experiment: In vivo inhibition study, BALB/c mouse model of RSV infection; parameters: species or system BALB/c mice; conditions: 2 or 200 mg/kg i.p., 24 h before or 24 h after infection, days 3, 5, 7 pi
Measles virus [10] = experiment: Measles virus plaque assay; format: cell-based; conditions: HEp2 and Vero cells treated before infection; MOI=0.01; 72 hours
Description: as §1
For plaque assays of probenecid treated cells, cells were treated with various concentrations of Probenecid before being infected with Measles virus (MOI=0.01). After 72 hours, cells were frozen until plaque assay. Plaque concentrations are recorded as log 10 PFU/mL.

influenza virus = experiment: Influenza assays in A549 cells; format: cell-based
Description: Experiment Conducted in A549 Cells.
[…] with influenza virus (MOI=0.1) for 1 hour
The virus is plaqued in MDCK cells while studies are carried out in human respiratory epithelial cells.

hMPV CAN83 (A2 strain) = experiment: hMPV challenge of BALB/c mice; format: in vivo; conditions: 24 h prior to or 24 h post infection; lungs 5 dpi; FIGS. 26A-26B
Description: BALB/c mice were prophylactically (24 h prior to) or post-infection (24 h post) (“treatment”) treated with probenecid at the indicated concentrations. Mice (n=5/sex/group) were challenged i.n. with 1e6 PFU hMPV CAN83 (A2 strain). Lungs were collected 5 dpi and a plaque assay performed. The results are illustrated in FIGS. 26A-26B.

Memphis-37 = experiment: In vitro probenecid inhibition assay, Memphis-37 (plaque assay); format: cell-based, human RSV strain A; conditions: for IC50 / IC90: human respiratory syncytial virus; for virus replication compared to control (DMSO only): Vero E6, HEp-2 and NHBE cells
[11] = Preliminary virology data used for pediatric simulations; conditions: virus not stated
Description: Simulations were also conducted in pediatric subjects. Allometric scaling based on body weights used as an empirical approach to predict concentrations in pediatric subjects. 10 mg/kg qd, 10 mg/kg bid, 20 mg/kg qd, 20 mg/kg bid dose was simulated. IC50 from preliminary virology data is 1 nM.

SARS-CoV-2 [12] = conditions: 90% inhibition of COVID-19 viral replication; Investigator Brochure; read-out: IC90 level; cited from earlier work
SARS-CoV-2 [13] = conditions: cited from earlier work
Mumps (Jones) virus = experiment: Mumps assay in Vero-P cells; format: cell-based; conditions: MOI=0.1, FIG. 10
Source text: (§2) Experiments Conducted in Vero-P Cells.

[14] = in vivo, cited from earlier work
Dengue Type 1 virus = experiment: Dengue assay in Vero-P cells; conditions: MOI=0.1, FIG. 12
Zika (MR766) virus = experiment: Zika assay in Vero-P cells; format: cell-based; conditions: MOI=0.1, FIG. 11
Source text: as §2

RSV = conditions: cited from earlier work
[15] = Vero C1008, Prophylaxis (24 h before infection), Vero E6 cells
[16] = Vero C1008, Treatment (24 h after infection), Vero E6 cells
[17] = Prophylaxis (24 h before infection), HEp-2 cells
[18] = Prophylaxis (24 h before infection), NHBE cells
[19] = Treatment (24 h after infection), HEp-2 cells
[20] = Treatment (24 h after infection), NHBE cells

In the case of `CCCN(CCC)S(=O)(=O)c1ccc(C(=O)O)cc1` [Probenecid, 4-[(dipropylamino)sulfonyl] benzoic acid], the IC50 (A/WSN/33 (H1N1) [1]) is reported as 0.000143 µg/mL (≈ 0.000501 µM), the “OAT3 Raw Ct Value” [2] is reported as “undetectable levels of OAT3 transcripts; also recorded: No Ct” and the IC90 (SARS-CoV-2 [3]) is reported as 2.08 µg/mL (≈ 7.29 µM). The killing of bacteria (E. coli) was “did not kill bacteria”, the IC50 (RSV B1; [15]) was 0.85 µM and the IC90 (RSV B1; [15]) was over 100 µM. For the same molecule, the IC50 (RSV B1; [16]) was 2 µM, the IC90 (RSV B1; [16]) was over 100 µM and the IC50 (RSV B1; [17]) was 0.8 µM. For the same molecule, the IC90 (RSV B1; [17]) was over 100 µM, the IC50 (RSV B1; [18]) was 0.8 µM and the IC90 (RSV B1; [18]) was over 100 µM. For the same molecule, the IC50 (RSV B1; [19]) was 0.9 µM, the IC90 (RSV B1; [19]) was over 100 µM and the IC50 (RSV B1; [20]) was 1.2 µM. For the same molecule, the IC90 (RSV B1; [20]) was over 100 µM, the “virus replication compared to control (DMSO only)” value (RSV B1; prophylaxis 24 h before RSV B1 infection, FIG. 3) was “significantly (**** p<0.0001) inhibited the virus replication” and the “virus replication compared to control (DMSO only)” value (RSV B1; treated 24 h after RSV B1 infection, FIG. 4) was “significantly (**** p<0.0001) inhibited the virus replication”. For the same molecule, the patient symptoms (SARS-CoV-2 [4]) was “patient symptoms showed improvement”, the syncytia per well (Measles virus [5]; 1 uM Probenecid, 24 hrs, NP fluorescence stain) was “no syncytia were detected” and the “concentration also effective on MeV” value (Measles virus [5]; Hep-2 cells, other assays) was 0.03 UM. For the same molecule, the IC50 (Measles virus [5]; Measles morbillivirus, probenecid dilution assay, FIG. 14A, read-out: IC50 (average syncytia per well)) was 0.0008 µM, the IC50 (RSV A2 [6]; [15]) was 0.07 µM and the IC90 (RSV A2 [6]; [15]) was 0.63 µM. The IC50 (RSV A2 [6]; [16]) was 0.1 µM, the IC90 (RSV A2 [6]; [16]) was 2.7 µM and the IC50 (RSV A2 [6]; [17]) was 0.8 µM. The IC90 (RSV A2 [6]; [17]) was 7.2 µM, the IC50 (RSV A2 [6]; [18]) was 0.4 µM and the IC90 (RSV A2 [6]; [18]) was 3.6 µM. For the same molecule, the IC50 (RSV A2 [6]; [19]) was 1.2 µM, the IC90 (RSV A2 [6]; [19]) was 10.8 µM and the IC50 (RSV A2 [6]; [20]) was 0.3 µM. The IC90 (RSV A2 [6]; [20]) was 2.7 µM, the “virus replication compared to control (DMSO only)” value (RSV A2 [6]; prophylaxis 24 h before RSV A2 infection, FIG. 1) was “significantly (**** p<0.0001) inhibited the virus replication” and the “virus replication compared to control (DMSO only)” value (RSV A2 [6]; treated 24 h after RSV A2 infection, FIG. 2) was “significantly (**** p<0.0001) inhibited the virus replication”. The IC50 (A/WSN/33 (H1N1) [7]) was 0.0005 µM, the effect on infection [8] was “did not statistically significantly reduce infection” and the killing of bacteria (Burkholderia) was “did not kill bacteria”. The “lung virus titers compared to control (PBS)” value (RSV A2 [9]; female BALB/c mice) was “significantly (p<0.0001) reduced lung virus titer; also recorded: significant (**** p<0.0001) reduction in lung viral titers”, the “lung virus titers compared to control (PBS)” value (RSV A2 [9]; male BALB/c mice) was “significantly (p<0.0001) reduced lung virus titer; also recorded: significant (**** p<0.0001) reduction in lung viral titers” and the plaque titers (Measles virus [10]) was “below the limit of detection”. The IC50 for flu (influenza virus) was “in the picomolar range”, the “effect on hMPV infection (lung plaque assay)” value (hMPV CAN83 (A2 strain)) was “Prophylactically and Therapeutically Reduces Human Metapneumovirus (HMPV) Infection” and the IC50 (Memphis-37; [15]) was 0.03 µM. It also gave an IC90 (Memphis-37; [15]) of 0.27 µM, an IC50 (Memphis-37; [16]) of 0.4 µM and an IC90 (Memphis-37; [16]) of 3.6 µM. It also gave an IC50 (Memphis-37; [17]) of 0.04 µM, an IC90 (Memphis-37; [17]) of 0.36 µM and an IC50 (Memphis-37; [18]) of 0.16 µM. For the same molecule, the IC90 (Memphis-37; [18]) was 1.44 µM, the IC50 (Memphis-37; [19]) was 0.5 µM and the IC90 (Memphis-37; [19]) was 4.5 µM. For the same molecule, the IC50 (Memphis-37; [20]) was 0.2 µM, the IC90 (Memphis-37; [20]) was 1.8 µM and the “virus replication compared to control (DMSO only)” value (Memphis-37; prophylaxis 24 h before Memphis-37 infection, FIG. 5) was “significantly (**** p<0.0001) inhibited the virus replication”. For the same molecule, the “virus replication compared to control (DMSO only)” value (Memphis-37; treated 24 h after Memphis-37 infection, FIG. 6) was “significantly (**** p<0.0001) inhibited the virus replication”, the IC50 [11] was 0.001 µM and the IC90 (SARS-CoV-2 [12]) was 0.364 µM. The “efficacy at treating SARS-CoV-2” value (SARS-CoV-2 [13]; hamsters, 2 mg/kg and 200 mg/kg) was “both effective at treating SARS-CoV-2 in hamsters in vivo”, the “effect on virus replication and inflammatory response” value (SARS-CoV-2 [13]; in vitro and pre-clinical hamster studies (WO 2021/207606)) was “block replication of the SARS-CoV-2 virus and the associated acute inflammatory response to the infection” and the “inhibition of virus replication” value (Mumps (Jones) virus) was “picomolar levels of probenecid were effective at inhibiting virus replication”. The absorption ([14]; po) was “completely absorbed after oral administration”, the “time to peak plasma concentration” value ([14]; po) was 2 to 4 h and the half life [14] was 6 to 12 h. The half-life in plasma [14] was “less than 5 hr to more than 8 hr”, the “inhibition of virus replication” value (Dengue Type 1 virus) was “picomolar levels of probenecid were effective at inhibiting virus replication” and the “inhibition of virus replication” value (Zika (MR766) virus) was “picomolar levels of probenecid were effective at inhibiting virus replication”.
In the case of `NC(=O)c1ncn([C@@H]2O[C@H](CO)[C@@H](O)[C@H]2O)n1` [Ribavirin], the therapeutic results (RSV; inhaled) is listed as “mixed-to-poor results”.
For “palivizumab: a humanized monoclonal antibody targeting the F protein”, the reduction of hospitalizations (RSV; treated high-risk infants, monthly administration) is listed as “approximately 50%”.
